Where two headings read alike, the source gives them in different places. Bridge positions count the residues as written; N and C are the ends. Square brackets hold non-standard residues; d marks the D form. Peptide text beside a SMILES is read from it. R8 = C=CCCCCCC[C@@](C)(N)C(=O)O; Cba = N[C@@H](CC1CCC1)C(=O)O; S5 = C=CCCC[C@](C)(N)C(=O)O
Assays:
[1] = target: T1, human Mdm2 1–125 (Homo sapiens, UniProt Q00987); assay: Mdm2 binding assay (competitive fluorescence anisotropy/polarization); conditions: competitive fluorescence polarization, read-out: Mdm2 (nM), Mdm2 binding (Kd)
T1 construct: GST (N); His6 (internal); TEV cleavage site ENLYFQG (internal); made in house; host or cells: Escherichia coli BL21 (DE3) Rosetta T1R

[2] = Whole cell homogenate stability; format: in vitro ADME; conditions: 1 μM peptide, 37 °C, up to 22 h
Experimental: Peptides at a concentration of 1 μM were incubated at 37 °C with HCT116 whole cell homogenates prepared from 1 million lysed cells/mL. The reaction was stopped at 0, 1, 2, 4, and 22 h with an organic solvent followed by centrifugation. The resulting supernatant was injected into LC/MS for detection of the tested peptide. The remaining percentage of each compound was normalized to the 0 h amount and reported. As a positive control, we used the ONEG peptide with the sequence […] [28].

[3] = system: p53 responsive β-lactamase reporter in HCT116 cells; assay: p53 beta-lactamase reporter gene cellular functional assay; format: cell-based
Summary of the method: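 HCT116 cells stably carrying a p53-responsive β-lactamase reporter seeded 8000/well overnight, then switched to Opti-MEM with 0% or 10% FBS for compound treatment at 0.5% DMSO final. β-Lactamase activity measured with ToxBLAzer Dual Screen on a multiplate reader.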

[4] = Circular dichroism (CD) α-helicity; format: physicochemical; conditions: for Helicity (%): CD of free peptide, 25 °C, 1 mM Hepes pH 7.4, 5% methanol
Summary of the method: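 Peptide dried from methanol, reconstituted to 1 mM in 1 mM Hepes pH 7.4 with 5% methanol; concentration by A280. CD spectra 300–190 nm, 0.2 cm path, 25 °C, duplicates; converted to mean residue ellipticity and deconvoluted for secondary structure.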

[5] = Lactate dehydrogenase (LDH) release assay; format: cell-based; conditions: membrane integrity, HCT116
Experimental: HCT116 cells were seeded into a 384-well plate at a density of 8000 cells per well. Cells were maintained in McCoy’s 5A Medium with 10% fetal bovine serum (FBS), Blasticidin, and Penicillin/Streptomycin. The cells were incubated overnight, followed by the removal of cell media and the addition of Opti-MEM Medium without FBS. Cells were then treated with peptides for 4 or 16 h in Opti-MEM, either in 10% FBS or in serum free conditions. The final concentration of DMSO was 0.5%. Lactate dehydrogenase release was detected using the CytoTox-ONE Homogenous Membrane Integrity Assay Kit (Promega), as per the manufacturer’s instructions. Measurements were carried out using the Tecan plate reader. Maximum LDH release was defined as the amount of LDH released as induced by the lytic peptide (iDNA79) and used to normalize the results.

[6] = target: T2, biotinylated Mdm2 (Homo sapiens, UniProt Q00987); assay: Surface plasmon resonance (SPR); format: binding; conditions: Figure 2A right panel, 25 °C
T2 construct: made in house
Experimental: SPR experiments were performed with Biacore T100 (GE Healthcare) at 25 °C. […] The SPR buffer consisted of 50 mM Tris pH 7.4, 150 mM NaCl, 1 mM DTT, 0.05% Tween 20, and 3% DMSO. The CM5 chip was first conditioned with 100 mM HCl, followed by 0.1% SDS, 50 mM NaOH, and then water, all performed twice with 6 sec injection at a flow rate of 100 µL/min. With the flow rate set to 10 µL/min, streptavidin (S4762, Sigma-Aldrich) was immobilized on the conditioned chip through amine coupling, as described in the Biacore manual. Excess protein was removed by 30 s injection of the wash solution (50 mM NaOH + 1 M NaCl) at least eight times. The immobilized level was ~3000 RU. The biotinylated Mdm2 was captured by streptavidin, up to a level of ~400 RU. A flow cell consisting of only streptavidin was used as the reference surface. Using a flow rate of 30 µL/min, peptides dissolved in the SPR buffer were injected for 180 s. The dissociation was monitored for 300 s. […] After the run, responses from the target protein surface were transformed by: (i) correcting with the DMSO calibration curve, (ii) subtracting the responses obtained from the reference surface, and (iii) subtracting the responses of the buffer injections from those of peptide injections. The last step is known as double referencing, which corrects the systematic artefacts. […]

[7] = target: T3, recombinant human Mdm2 protein (amino acids 1–125) (Homo sapiens, UniProt Q00987); assay: Isothermal titration calorimetry (ITC); format: binding; conditions: Figure 2A middle panel
T3 construct: purified recombinant human Mdm2 protein (amino acids 1–125); made in house
Experimental: Overnight dialysis of protein and peptides were carried out in buffer containing 1× phosphate-buffered saline (PBS) pH 7.2, 3% DMSO, and 0.001% Tween-20. […] Reverse ITC (200 µM of Mdm2 protein titrated into 20 µM of peptide) was carried out for peptides that are insoluble at high concentrations. All experiments were performed in duplicates using the MicroCal PEAQ-ITC Automated system. Data analysis was carried out using the MicroCal PEAQ-ITC Analysis Software.

[8] = Table 1, p53 reporter assay, HCT116, read-out: Cellular (µM), cellular activity (EC50)

T1 sequence (Q00987 with tags, fused parts or gaps): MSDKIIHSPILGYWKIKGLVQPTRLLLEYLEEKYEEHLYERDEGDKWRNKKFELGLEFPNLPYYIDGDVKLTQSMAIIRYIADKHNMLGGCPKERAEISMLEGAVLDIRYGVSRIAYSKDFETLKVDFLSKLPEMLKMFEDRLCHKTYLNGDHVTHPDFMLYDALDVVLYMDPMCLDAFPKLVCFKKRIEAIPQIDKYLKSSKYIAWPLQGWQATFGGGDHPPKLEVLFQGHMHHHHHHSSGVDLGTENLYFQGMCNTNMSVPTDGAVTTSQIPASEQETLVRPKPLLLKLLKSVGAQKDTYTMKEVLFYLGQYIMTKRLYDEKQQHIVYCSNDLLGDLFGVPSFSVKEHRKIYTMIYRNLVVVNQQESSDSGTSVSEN
T3 sequence (Q00987 1-125): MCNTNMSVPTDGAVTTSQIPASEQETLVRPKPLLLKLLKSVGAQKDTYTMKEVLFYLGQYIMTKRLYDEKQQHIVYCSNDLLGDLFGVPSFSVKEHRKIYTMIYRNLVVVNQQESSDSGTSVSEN
T2 sequence (Q00987 whole entry): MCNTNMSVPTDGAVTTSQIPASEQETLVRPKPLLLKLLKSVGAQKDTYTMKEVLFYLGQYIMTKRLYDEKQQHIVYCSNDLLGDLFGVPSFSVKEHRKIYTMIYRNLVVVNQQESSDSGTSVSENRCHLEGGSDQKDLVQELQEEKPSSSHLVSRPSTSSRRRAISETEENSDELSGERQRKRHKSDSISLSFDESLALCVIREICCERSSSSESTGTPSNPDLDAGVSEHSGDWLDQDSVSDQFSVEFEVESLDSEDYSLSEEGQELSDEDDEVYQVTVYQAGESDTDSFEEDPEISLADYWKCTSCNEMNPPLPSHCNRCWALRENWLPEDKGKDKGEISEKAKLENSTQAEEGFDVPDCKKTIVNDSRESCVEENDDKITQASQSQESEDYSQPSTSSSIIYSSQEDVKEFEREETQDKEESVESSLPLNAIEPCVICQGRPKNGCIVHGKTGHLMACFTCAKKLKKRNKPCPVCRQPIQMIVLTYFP

Kd ([1]; Table 1) [nM]	EC50 [3, 8] [µM]	Helicity (%) ([4]; Table 1)	SMILES	stability in whole cell homogenate [2]	further results
135	> 50	21.4	CC(=O)N[C@@H](CC(C)C)C(=O)N[C@H](C(=O)N[C@@H](Cc1ccccc1)C(=O)NC(C)(C)C(=O)N[C@H](CCC(=O)O)C(=O)N[C@@H](Cc1ccc(O)cc1)C(=O)N[C@@H](Cc1c[nH]c2ccccc12)C(=O)N[C@@H](CCC(N)=O)C(=O)N[C@@H](CC(C)C)C(=O)N[C@@H](CC1CCC1)C(=O)NC(C)(C)C(=O)N[C@@H](CO)C(=O)N[C@@H](C)C(=O)N[C@@H](C)C(N)=O)[C@@H](C)O [Linear E5(D-Glu)]	decreased stability	–
38.9	0.55	50.3	CC(=O)N[C@@H](CC(C)C)C(=O)N[C@H](C(=O)N[C@@H](Cc1ccccc1)C(=O)N[C@]1(C)CCCCCCC=CCCC[C@@](C)(C(=O)N[C@@H](CO)C(=O)N[C@@H](C)C(=O)N[C@@H](C)C(N)=O)NC(=O)[C@H](CC2CCC2)NC(=O)[C@H](CC(C)C)NC(=O)[C@H](CCC(N)=O)NC(=O)[C@H](Cc2c[nH]c3ccccc23)NC(=O)[C@H](C)NC(=O)[C@H](CCC(=O)O)NC1=O)[C@@H](C)O [Peptide Y6A] (Ac-LTF[R8]EAWQL[Cba][S5]SAA-NH2; staple 4-11)	–	–
22	2.1	27.1	CC(=O)N[C@@H](CC(C)C)C(=O)N[C@H](C(=O)N[C@@H](Cc1ccccc1)C(=O)N[C@]1(C)CCCCCCC=CCCC[C@@](C)(C(=O)N[C@@H](CO)C(=O)N[C@@H](C)C(=O)N[C@@H](C)C(N)=O)NC(=O)[C@H](CC2CCC2)NC(=O)[C@H](CC(C)C)NC(=O)[C@@H](CCC(N)=O)NC(=O)[C@H](Cc2c[nH]c3ccccc23)NC(=O)[C@H](Cc2ccc(O)cc2)NC(=O)[C@H](CCC(=O)O)NC1=O)[C@@H](C)O [Q8(D-Gln)]	–	–
–	–	–	CC(=O)N[C@@H](CCCCN=[N+]=[N-])C(=O)NCCC(=O)N[C@@H](CC(C)C)C(=O)N[C@H](C(=O)N[C@@H](Cc1ccccc1)C(=O)N[C@]1(C)CCCCCCC=CCCC[C@@](C)(C(=O)N[C@@H](CO)C(=O)N[C@@H](C)C(=O)N[C@@H](C)C(N)=O)NC(=O)[C@H](CC2CCC2)NC(=O)[C@H](CCC(N)=O)N(C)C(=O)[C@H](C)NC(=O)[C@H](Cc2c[nH]c3ccccc23)NC(=O)[C@H](Cc2ccc(O)cc2)NC(=O)[C@H](CCC(=O)O)NC1=O)[C@@H](C)O [Q9(N-methyl L-Gln)]	–	Kd ([1]; Table 2): 211 nM; EC50 ([3]; Table 2, p53 reporter assay, HCT116, read-out: Cellular (µM), cellular activity (EC50)): > 50 µM; α-helicity by CD [4]: < 30%; Helicity (%) ([4]; Table 2): 20.2%
8.6	1.2	41.2	CC(=O)N[C@@H](CC(C)C)C(=O)N[C@H](C(=O)N[C@@H](Cc1ccccc1)C(=O)N[C@]1(C)CCCCCCC=CCCC[C@@](C)(C(=O)N[C@H](CO)C(=O)N[C@@H](C)C(=O)N[C@@H](C)C(N)=O)NC(=O)[C@H](CC2CCC2)NC(=O)[C@H](CC(C)C)NC(=O)[C@H](CCC(N)=O)NC(=O)[C@H](Cc2c[nH]c3ccccc23)NC(=O)[C@H](Cc2ccc(O)cc2)NC(=O)[C@H](CCC(=O)O)NC1=O)[C@@H](C)O [S12(D-Ser)]	–	–
136	3.4	40.7	CC(=O)N[C@@H](CC(C)C)C(=O)N[C@@H](C(=O)N[C@@H](Cc1ccccc1)C(=O)N[C@]1(C)CCCCCCC=CCCC[C@@](C)(C(=O)N[C@@H](CO)C(=O)N[C@@H](C)C(=O)N[C@@H](C)C(N)=O)NC(=O)[C@H](CC2CCC2)NC(=O)[C@H](CC(C)C)NC(=O)[C@H](CCC(N)=O)NC(=O)[C@H](Cc2c[nH]c3ccccc23)NC(=O)[C@H](Cc2ccc(O)cc2)NC(=O)[C@H](CCC(=O)O)NC1=O)[C@H](C)O [T2(D-Thr)]	–	–
30	0.6	41.0	CC(=O)N[C@@H](CC(C)C)C(=O)N[C@H](C(=O)N[C@@H](Cc1ccccc1)C(=O)N[C@]1(C)CCCCCCC=CCCC[C@@](C)(C(=O)N[C@@H](CO)C(=O)N[C@@H](C)C(=O)N[C@@H](C)C(N)=O)NC(=O)[C@H](CC2CCC2)NC(=O)[C@H](CC(C)C)NC(=O)[C@H](CCC(N)=O)NC(=O)[C@@H](Cc2c[nH]c3ccccc23)NC(=O)[C@H](Cc2ccc(O)cc2)NC(=O)[C@H](CCC(=O)O)NC1=O)[C@@H](C)O [W6(D-Trp) (MP-384)]	–	–
286	3.2	43.2	CC(=O)N[C@@H](CC(C)C)C(=O)N[C@H](C(=O)N[C@@H](Cc1ccccc1)C(=O)N[C@]1(C)CCCCCCC=CCCC[C@@](C)(C(=O)N[C@@H](CO)C(=O)N[C@@H](C)C(=O)N[C@@H](C)C(N)=O)NC(=O)[C@H](CC2CCC2)NC(=O)[C@H](CC(C)C)NC(=O)[C@H](CCC(N)=O)NC(=O)[C@H](Cc2c[nH]c3ccccc23)NC(=O)[C@@H](Cc2ccc(O)cc2)NC(=O)[C@H](CCC(=O)O)NC1=O)[C@@H](C)O [Y6 (D-Tyr)]	–	–

SMILES	Kd ([1]; Table 1) [nM]	EC50 [3, 8] [µM]	Helicity (%) ([4]; Table 1)	stability in whole cell homogenate [2]	further results
CC(=O)N[C@@H](CC(C)C)C(=O)N[C@H](C(=O)N[C@@H](Cc1ccccc1)C(=O)NC(C)(C)C(=O)N[C@@H](CCC(=O)O)C(=O)N[C@@H](Cc1ccc(O)cc1)C(=O)N[C@@H](Cc1c[nH]c2ccccc12)C(=O)N[C@@H](CCC(N)=O)C(=O)N[C@@H](CC(C)C)C(=O)N[C@@H](CC1CCC1)C(=O)NC(C)(C)C(=O)N[C@@H](CO)C(=O)N[C@@H](C)C(=O)N[C@@H](C)C(N)=O)[C@@H](C)O [Linear Parent (MP-189), Ac–Leu–Thr–Phe–Aib–Glu–Tyr–Trp–Gln–Leu–Cba–Aib–Ser–Ala–Ala–NH2]	43.1	33.5	35.3	moderate stabilities	–
CC(=O)N[C@@H](CC(C)C)C(=O)N[C@H](C(=O)N[C@@H](Cc1ccccc1)C(=O)N[C@]1(C)CCCCCCC=CCCC[C@@](C)(C(=O)N[C@@H](CO)C(=O)N[C@@H](C)C(=O)N[C@@H](C)C(N)=O)NC(=O)[C@H](CC2CCC2)NC(=O)[C@H](CC(C)C)NC(=O)[C@H](CCC(N)=O)NC(=O)[C@H](Cc2c[nH]c3ccccc23)NC(=O)[C@H](Cc2ccc(O)cc2)NC(=O)[C@H](CCC(=O)O)NC1=O)[C@@H](C)O [MP-292]	18.6	0.54	32.8	minimal degradation	EC50 [5]: > 50 µM; Kd [6]: 1.4 nM; Kd [7]: < 20 nM; EC50 ([3]; 0% serum, read-out: p53 reporter assay EC50): 0.5 µM; EC50 ([3]; 2% serum, read-out: p53 reporter assay EC50): 0.7 µM; EC50 ([3]; 10% serum, read-out: p53 reporter assay EC50): 4.2 µM
